Laboratory results reported in patent US10995068B2, “Synthetic sphingolipid-like molecules, drugs, methods of their synthesis and methods of treatment” (The Regents of the University of California, priority 2015, dated 2021).

Legend:
[1] = system: PP2A; test: PP2A phosphatase activity; assay type: biochemical, murine; settings: PP2A immunoprecipitated from FL5.12 cell lysates, phosphopeptide dephosphorylation
Excerpt: Furthermore, many embodiments of the invention are directed to azacyclic constrained sphingolipid-like molecules inducing internalization of nutrient transporters via a mechanism that activates PP2A. […] Thus, activation of PP2A is very peculiar to certain sphingolipid structures. Activation of PP2A by FTY720 and SH-BC-893 also stimulated vacuolation, and as the PP2A inhibitors calyculin A and SV40 small t antigen, each blocked this effect (FIG. 59C). Of note, YM201636-induced vacuolation was unaffected by PP2A inhibition (FIG. 60B). In addition, inhibiting PP2A restored PIKfyve to the proper location within vacuoles in cells treated with FTY720 or SH-BC-893 (FIG. 57D).
PP2A phosphatase activity. PP2A activity was measured using a PP2A immunoprecipitation phosphatase assay kit (EMD Millipore). Briefly, the catalytic subunit of PP2A was immunoprecipitated from FL5.12 cell lysates with 4 μg anti-PP2A, C subunit. After four washes, the activity of immunoprecipitated PP2A was assessed by dephosphorylation of the phosphopeptide according to the manufacturer's instructions in the presence or absence of C2-ceramide, dihydro-C2-ceramide, FTY720, SH-BC-893, or calyculinA.

[2] = system: fusion of LC3-positive autophagosomes with LAMP1-positive lysosomes; test: Autophagosome-lysosome fusion in chloroquine-treated cells; assay type: cell-based
Protocol: It is known in the art that cells adapt to nutrient stress by increasing autophagic flux. However, autophagosome-lysosome fusion reactions depend upon […] release via TRPML1 channels that are activated by PI(3,5)P2. […] Chloroquine (CQ) is molecule that stabilizes the transient autophagosomes. Cells were treated with CG to stabilize autophagolysosomes and subsequently treated with FTY720, SH-BC-893, or YM201636. […] Phosphatidylinositol 5-Phosphate (PI(5)P) is essential for autophagosome biogenesis upon glucose depletion. PI(5)P is produced by dephosphorylating PI(3,5)P2, and thus PI(5)P might also be mis-localized in SH-BC-893-treated cells, and thus also contributing to the disruption of autophagosome formation. […] Thus, SH-BC-893 inhibited both autophagosome formation and degradation. As a control, Vac14 over-expression limited vacuolation (FIGS. 55F, 61F, and 62B) and rescued autophagic flux in SH-BC-893-treated cells (FIGS. 61A, 61B, 61D and 61E).
Light Microscopy: Brightfield and epifluorescence microscopy were conducted using a Nikon TE2000-S fluorescence microscope; confocal microscopy was performed on a Zeiss LSM780 confocal microscope or Nikon Eclipse Ti spinning disk confocal microscope. […] Co-localization was determined using JACoP plugin in ImageJ software. Macropinocytosis was measured after 16 h incubation in serum-free DMEM. p53−/−; LSL-K-RasG12D MEFs before (LSL) or after (KRasG12D) introduction of Cre were serum starved for 16 h and then treated with macropinocytosis inhibitor 5-(N-ethyl-N-isopropyl) amiloride (EIPA, 75 μM) for 1 h or SH-BC-893 for 6 h. Oregon Green dextran (Life Technologies, cat #D7173) (1 mg/mL) and Lysotracker Red (Life Technologies, cat #L-7525) (1:2,000 dilution) were added for 30 min and live cells were evaluated on the spinning disc confocal microscope. […]

[3] = system: 4F2 cell-surface antigen heavy chain (4F2hc); test: Surface 4F2hc nutrient transporter expression; assay type: cell-based, human; settings: treatment at IC50 and at twice this dose, 6 h; efficacy similar to FTY720
Excerpt: The broad activity of the embodiments of the inventions described herein is consistent with a bioenergetic mechanism of action against cancer cells that includes nutrient transporter down-regulation, as described supra. Thus, to directly examine the constrained pyrrolidine sphingolipid-like molecules on nutrient transport, the surface-levels of the amino acid transporter associated protein 4F2 cell-surface antigen heavy chain (4F2hc) was examined following treatment with several analogues at their IC50 and at twice this dose.
Nutrient transporter expression: Surface 4F2hc expression is measured at 6 h using phycoerythrin (PE)-conjugated mouse anti-human 4F2hc antibody (BD Pharmingen, cat #556077); analysis is restricted to viable cells. PE conjugated Mouse IgG1, k (cat #555749, BD Pharmingen) is used as an isotype control. Cells are analyzed on a BD LSR II flow cytometer and with FlowJo software (Treestar).

Compound | PP2A activation [1] | fusion of LC3-positive autophagosomes with LAMP1-positive lysosomes [2] | 4F2hc surface levels [3]
CCCCCCCCc1ccc([C@H]2CCN[C@@H]2CO)cc1.Cl [Compound 5, (2S,3R)-2-(hydroxymethyl)-3-(4-octylphenyl)Pyrrolidinium chloride] | activating PP2A | reduced fusion | reduced 4F2hc surface levels
CCCCCCCCc1ccc(CCC(N)(CO)CO)cc1.Cl [FTY720, 2-Amino-2-[2-(4-octylphenyl)ethyl]propane 1,3-diol hydrochloride, reference compound] | activating PP2A | reduced fusion | –
CCCCCCCCc1ccc([C@@H]2CCN[C@H]2CO)cc1.Cl [Compound 6] | – | – | reduced 4F2hc surface levels
